Source: patent publication EP0551200A1, “Protein phosphatase inhibitors for use in therapy” (priority 1992, dated 1993)

Columns and labels:
[1] = system: EGFR; assay: Phosphorylation of EGF receptor, immunoprecipitation from 32P-labeled fibroblasts; assay type: cell-based, human; settings: 250 nM, 15 min
Description: Phosphorylation of EGFR by TNF, IL-1, EGF, PDGF (indicated as PGF) and okadaic acid (OA). ³²P-Labeled cultures of fibroblast cells were treated with TNF (100 units/ml), IL-1 (100 units/ml), EGF (50 ng/ml), PDGF (32 ng/ml) or OA (250 nM) for 15 min. Control is indicated by 0. The EGFR was immunoprecipitated with anti-EGFR antibody (Oncogene Science, Manhasset, N.Y., US). The proteins were subjected to 7.5% SDS-PAGE and autoradiography.
IL-1, TNF, or Okadaic Acid Treatment Stimulate Phosphorylation of the EGF Receptor - One feature of TNF and IL-1 action is the transmodulation of the EGFR via phosphorylation. Okadaic acid was added to human fibroblasts to see if it can also mimic this effect of TNF and IL-1. ³²P-Labeled human fibroblasts were treated with ligand (TNF, IL-1, EGF, PDGF, or okadaic acid) for 15 min and extracted for analysis. The extracts were immunoprecipitated with anti-EGFR antibodies. The immunoprecipitated EGFR derived from variously treated fibroblasts was analyzed by SDS-PAGE and autoradiography.

[2] = system: Egr-1 mRNA; assay: Northern blot analysis of Egr-1 mRNA induction in quiescent primary human fibroblasts; assay type: cell-based
Description: Quiescent human fibroblasts were incubated with TNF (500 units/ml) (a) or OA (500 nM) (b) for 0, 30, 60 min after which total cellular RNA was extracted. Blots of RNA from these cells were hybridized to radiolabeled (10⁶ cpm/ml) Egr-1 cDNA probe. c, the blot in b was stripped and reprobed with c-jun cDNA. Note: Egr-1 mRNA probe was not completely stripped from the blot. The autoradiograph of the blot is presented. d, regularly maintained cells were incubated wither with no additions (control, 0 time) or with OA for 1, 3, 5, 7 h and Northern analysis was carried out with an IL-6 cDNA probe (ATCC, Rockville, MD, US).
10 µg of RNA was applied to each lane and subjected to Northern blot analysis using an Egr-1 specific cDNA probe [1.6 kb Bgl II fragment (Sukhatme et al, Cell 53, 37-48, 1988)]. The same blots were rehybridized with actin or GADPH cDNA for normalizing the amount of RNA loaded. The blots were dried and autoradiographed. • (A). Time course of okadaic acid-induced Egr-1 and c-jun messages in primary human fibroblasts. Quiescent human fibroblasts were induced with 1 µM of okadaic acid for the time periods indicated. […] Time course of okadaic acid-induced Egr-1 message in Balb/c 3T3 cells. Quiescent Balb/c 3T3 cells were induced with okadaic acid (0.5µM) for the times indicated. • (C). Concentration dependent induction of Egr-1 message by okadaic acid in Balb/c 3T3 cells. Quiescent Balb/c 3T3 cells were induced with the indicated concentrations of okadaic acid for 1 h. As controls, different concentrations of DMSO were included. These corresponded to the amounts present in 0.25 µM okadaic acid (0.025% dimethyl sulphoxide (DMSO)) 0.5 µM okadaic acid (0.05% DMSO) and 1 µM okadaic acid (0.1%). • (D). Concentration dependent and time course induction of Egr-1 message by calyculin A. Quiescent Balb/c 3T3 cells were induced with different concentrations of calyculin A for 1 h. Northern analysis of this dose-dependent induction by calyculin A is shown on the left panel of the figure. […] Northern analysis of this time course induction by calyculin A is shown in the right panel of the figure. The same blot was rehybridized with pCMV-fos (Curran et al, Oncogene 2, 79-84, 1987) and pCMV-jun (Rauscher et al, 1988) shown in the middle panel. The blot was dried and autoradiographed.
Cells were incubated with either 0.5 µM of okadaic acid or 10 µg/ml of cycloheximide as well as with 0.5 µM of okadaic acid and 10 µg/ml of cycloheximide for 1.5, 3 or 6 h. Cells were harvested, RNA isolated and subjected to Northern blot analysis. The blot was probed with Egr-1 or actin cDNA.
Quiescent primary human fibroblasts were incubated with okadaic acid (OA) or TPA for 1 or 3 h. The concentrations of OA and TPA were 0.5 µM and 120 ng/ml, respectively. The concentration of 1-(5-isoquinolinylsulfonyl)-2-methylpiperazine dihydrochloride (H7) and N-(2-guanidinoethyl)-5-isoquinolinesulphonamide dihydrochloride (HA1004) used was 25 µM. The cells were pre-treated for 15 min with H7 or HA1004 before they were induced by OA or TPA for 1 or 3 h. Cells were harvested, RNA was isolated and subjected to Northern blot analysis. The blot was probed with Egr-1 or GADPH cDNA. • (B). As a positive control, primary human fibroblasts were treated with TPA (30 ng/ml) for 1 h (1st lane). The fibroblasts were also pre-treated with H7 (25 µM) or HA1004 (25 µM) for 15 min before treatment with TPA for 1 h (2nd and 3rd lanes respectively). […] The blot was probed with Egr-1 or actin cDNA. • (C). Quiescent Balb/c 3T3 cells were incubated with OA, TPA or dBt-cAMP for 1 h or pre-treated with H7 (25 µM) or HA1004 (25 µM) for 15 min and then incubated with each of the agonists for 1 h. Cells were harvested, RNA was isolated and subjected to Northern blot analysis. […]

[3] = system: human fibroblasts; assay: Total cellular protein synthesis in human fibroblasts; assay type: cell-based; settings: data not shown
Description: Quiescent human fibroblasts were stimulated with MEM containing 0.5 µM okadaic acid in the presence or absence of cycloheximide (10 µg/ml) for the times indicated in Fig. 11. […] Treatment of cells with cycloheximide enhanced the induction of Egr-1 mRNA by okadaic acid at 1.5 and 3 h (Fig. 11). Similarly puromycin, like cycloheximide, also "superinduces" the induction of the Egr-1 mRNA by okadaic acid (data not shown). […] However, in view that protein phosphatase 1 (PP1) and protein phosphatase 2A (PP2A) regulate enzymes associated with cellular protein synthesis (Cohen, Annu. Rev. Biochem. 58, 453-508, 1989) the effect of okadaic acid on protein synthesis in mouse and human fibroblasts was also measured. […] By then the Egr-1 mRNA message was already induced. A corollary to this is a comparison of the amount of ³⁵S-methionine labelled Egr-1 protein immunoprecipitated by R5232 antibodies from protein phosphatase inhibitor-treated and control cells. […] Thus, the induction of the Egr-1 gene by phosphatase inhibitors is unlikely to be mediated by their late inhibitory effects on cellular protein synthesis.

## C=C1[C@@H](O)[C@@H]2O[C@]3(CC[C@H](/C=C/[C@@H](C)[C@@H]4CC(C)=C[C@@]5(O[C@H](C[C@@](C)(O)C(=O)O)CC[C@H]5O)O4)O3)CC[C@H]2O[C@@H]1[C@@H](O)C[C@H](C)[C@H]1O[C@@]2(CCCCO2)CC[C@H]1C [okadaic acid]
[1]
  stimulation of phosphorylation of the EGFR (in words): to an even greater extent than does TNF, IL-1, EGF or PDGF
[2]; 1 µM
  time for which the Egr-1 mRNA level is maintained: up to 7 h
  time of maximal induction of Egr-1 mRNA: about 2 h
[2]; 1 µM, Example 2
  time to induction of Egr-1 mRNA: ≤ 1 h
[2]; Homo sapiens, Fibroblast, read-out: Egr-1 mRNA level over control
  fold induction at 1 µM: 30 to 40
[2]; OA 500 nM, Example 1
  time to induction of Egr-1: ≤ 30 min
[3]; 0.5 µM, first 2 h
  effect on total cellular protein synthesis (in words): little measurable effect
[3]; Homo sapiens, Fibroblast, at 4 h
  inhibition at 0.5 µM: ≤ 50%
